These are literature values, as cited in patent US11865215B2, “Tablet compositions comprising abiraterone acetate” (SYNTHON B.V., priority 2018, dated 2024).

Molecules are shown by their SMILES.

Experiment in data set [1]: not given
The source holds these as a separate data set.

For `CC(=O)O[C@H]1CC[C@@]2(C)C(=CC[C@@H]3[C@@H]2CC[C@]2(C)C(c4cccnc4)=CC[C@@H]32)C1` [Abiraterone acetate, 3β-acetoxy-17-(3-pyridyl)androsta-5,16-diene], the “BCS System class” value (compound of low solubility and low permeability) is reported as “Class IV”. In addition, the “effect of taking the tablet with food on absorption” value in data set [1] (with food) was “significantly and undesirably increases the absorption”.

Consider `C[C@]12CC[C@H](O)CC1=CC[C@@H]1[C@@H]2CC[C@]2(C)C(c3cccnc3)=CC[C@@H]12` [Abiraterone], for which the solubility in water entry is “less than 0.1 mg/ml”. The “time to reach maximum plasma concentration of abiraterone” value in data set [1] (oral administration in the fasting state) is listed as “approx. 2 hours”.
